Measurements taken from patent publication US10906929B2, “Phosphoramidate nucleoside derivatives as anticancer agents” (NuCana plc, priority 2016, dated 2021).

Key:
KG1 = assay: In vitro cytotoxicity, MTS assay; type: cell-based; details: Homo sapiens, KG-1, 72 h, read-out: Inhibitory concentration (IC50) KG1
Description: (§1) Cladribine phosphoramidate derivatives were evaluated against six leukaemic cell lines (KG1, U937, K562, NB4R2, NB4 and HL-60) in vitro. Inhibitory concentration (IC50) at which 50% of the cells were no longer viable (calculated using MTS assay) was determined. Cells were treated with Cladribine and its 3′-phosphoramidate derivatives at concentrations between 100 μM and 0.02 μM by serial dilutions and incubated for 72 h at 37° C., 5% CO2 in a final volume of 90 μL. Twenty microliters of MTS reagent (Promega UK Ltd, Southampton, Hants) was added to the tumour cell cultures and reaction incubated for a further 4 h at 37° C., 5% CO2. The absorbance of the reaction after this time was read by spectrophotometry at 490 nm and the percentage of viable cells calculated relative to untreated control cells in the same assay.

NB4 = assay: In vitro cytotoxicity, MTS assay; type: cell-based; details: Homo sapiens, NB-4, 72 h, read-out: Inhibitory concentration (IC50) NB4
Description: as §1

HL-60 = assay: In vitro cytotoxicity, MTS assay; type: cell-based; details: Homo sapiens, 72 h, read-out: Inhibitory concentration (IC50) HL-60
Description: as §1

K562 = assay: In vitro cytotoxicity, MTS assay; type: cell-based; details: Homo sapiens, 72 h, read-out: Inhibitory concentration (IC50) K562
Description: as §1

U937 = assay: In vitro cytotoxicity, MTS assay; type: cell-based; details: Homo sapiens, U-937, 72 h, read-out: Inhibitory concentration (IC50) U937
Description: as §1

NB4R2 = assay: In vitro cytotoxicity, MTS assay; type: cell-based; details: 72 h, read-out: Inhibitory concentration (IC50) NB4R2
Description: as §1

[1] = tested on: HL-60 Promyelocytic leukaemia; assay: In vitro viability assay, CellTiterGlo; type: cell-based; details: for Top Inhibition (%): HL-60, CellTiterGlo, 72 h; for EC50: Homo sapiens, HL-60, 72 h, read-out: EC50 (μM) Ab
Description: (§2) In vitro viability assay was performed to assess the effects of compounds on cell viability in selected cell lines over 72 h using the CellTiterGlo (CTG, Promega-G7573) assay. The tests were performed in duplicates with treatment of compounds at 9 points, 3.16 folds titration in 96 well plates over ˜72 h. The compound starting concentrations were […]. Cell viability assay using CellTiterGlo in 96-well plate were performed. Compounds were dissolved to 40 mM with thawed 100% DMSO. Compounds were serially diluted at 3.16-fold in thawed DMSO, and warmed to 37° C. before being dissolved in media (2 μl+200 μl). After compounds were dissolved in media, media containing compounds were warmed to 37° C. in incubator and then compounds in media were added to cell plates (50 μl+50 μl) in duplicates. The compounds' final concentrations were from 198 μM to 19.9 nM. Solubility of all compounds was checked and recorded again, then the plates were transferred to CO2 tissue culture incubator immediately and incubated for 3 days. DMSO final concentration is 0.5%.

[2] = tested on: RL Non-Hodgkin's lymphoma; assay: In vitro viability assay, CellTiterGlo; type: cell-based; details: 72 h; for Top Inhibition (%): CellTiterGlo; for EC50: Homo sapiens, read-out: EC50 (μM) Ab
Description: as §2

[3] = tested on: Z-138 Mantle cell lymphoma; assay: In vitro viability assay, CellTiterGlo; type: cell-based; details: for EC50: Homo sapiens, Z-138, 72 h, read-out: EC50 (μM) Ab; for Top Inhibition (%): Z-138, CellTiterGlo, 72 h
Description: as §2

[4] = tested on: HEL92.1.7 Erythroleukaemia; assay: In vitro viability assay, CellTiterGlo; type: cell-based; details: for Top Inhibition (%): HEL92.1.7, CellTiterGlo, 72 h; for EC50: Homo sapiens, HEL 92.1.7, 72 h, read-out: EC50 (μM) Ab
Description: as §2

[5] = tested on: KG-1 Acute myelogenous leukaemia; assay: In vitro viability assay, CellTiterGlo; type: cell-based; details: for EC50: Homo sapiens, KG-1, 72 h, read-out: EC50 (μM) Ab; for Top Inhibition (%): KG-1, CellTiterGlo, 72 h
Description: as §2

[6] = tested on: MCF-7 Mammary epithelial adenocarcinoma; assay: In vitro viability assay, CellTiterGlo; type: cell-based, human; details: for EC50: Homo sapiens, MCF7, 72 h, read-out: EC50 (μM) Ab; for Top Inhibition (%): MCF-7, CellTiterGlo, 72 h
Description: as §2

| Structure (SMILES) | IC50 (KG1) | IC50 (NB4) | IC50 (HL-60) | IC50 (K562) | IC50 (U937) | IC50 (NB4R2) | Top Inhibition (%) [1] | EC50 [1] | Top Inhibition (%) [2] | EC50 [2] | EC50 [3] | Top Inhibition (%) [3] | Top Inhibition (%) [4] | EC50 [4] | EC50 [5] | Top Inhibition (%) [5] | EC50 [6] | Top Inhibition (%) [6] |
| --- | --- | --- | --- | --- | --- | --- | --- | --- | --- | --- | --- | --- | --- | --- | --- | --- | --- | --- |
| CCOC(=O)[C@H](C)NP(=O)(Oc1ccccc1)OC1C[C@H](n2cnc3c(N)nc(Cl)nc32)O[C@@H]1CO (stereo partly drawn) [Compound 1, 2-Chloro-2 ‘-deoxyadenosine-3’-[phenyl-(ethoxy-L-alaninyl)]-phosphate] | 1.76 µM | 0.74 µM | 2680 nM | > 10 µM | 3060 nM | 2520 nM |  |  |  |  |  |  |  |  |  |  |  |  |
| C[C@H](NP(=O)(Oc1ccccc1)OC1C[C@H](n2cnc3c(N)nc(Cl)nc32)O[C@@H]1CO)C(=O)OC(C)(C)C (stereo partly drawn) [Compound 2, 2-Chloro-2 ‘-deoxyadenosine-3’-[phenyl-(tert-butoxy-L-alaninyl)]-phosphate] | 2 µM | > 10 µM | > 10000 nM | > 10 µM | 6000 nM | > 10000 nM |  |  |  |  |  |  |  |  |  |  |  |  |
| C[C@@H](NP(=O)(Oc1ccccc1)OC1C[C@H](n2cnc3c(N)nc(Cl)nc32)O[C@@H]1CO)C(=O)OCc1ccccc1 (stereo partly drawn) [Compound 3, 2-Chloro-2 ‘-deoxyadenosine-3’-[phenyl-(benzoxy-D-alaninyl)]-phosphate] | > 10 µM | 7.82 µM | > 10000 nM | > 10 µM | 7520 nM | > 10000 nM |  |  |  |  |  |  |  |  |  |  |  |  |
| Nc1nc(Cl)nc2c1ncn2[C@H]1CC(OP(=O)(NCC(=O)OCc2ccccc2)Oc2ccccc2)[C@@H](CO)O1 (stereo partly drawn) [Compound 4, 2-Chloro-2 ‘-deoxyadenosine-3’-[phenyl-(benzoxy-glycinyl)]-phosphate] | > 10 µM | 8.04 µM | > 10000 nM | > 10 µM | > 10000 nM | 5560 nM |  |  |  |  |  |  |  |  |  |  |  |  |
| CC(C)C[C@H](NP(=O)(Oc1ccccc1)OC1C[C@H](n2cnc3c(N)nc(Cl)nc32)O[C@@H]1CO)C(=O)OCc1ccccc1 (stereo partly drawn) [Compound 5, 2-Chloro-2 ‘-deoxyadenosine-3’-[phenyl-(benzoxy-L-leucinyl)]-phosphate] | 5.04 µM | 2.56 µM | 4450 nM | > 10 µM | > 10000 nM | 1570 nM |  |  |  |  |  |  |  |  |  |  |  |  |
| CCCCCOC(=O)[C@H](CC(C)C)NP(=O)(Oc1cccc2ccccc12)OC1C[C@H](n2cnc3c(N)nc(Cl)nc32)O[C@@H]1CO (stereo partly drawn) [Compound 7, 2-Chloro-2′-deoxyadenosine-3′-[1-naphthyl-(pentoxy-L-leucinyl)] phosphate] |  |  |  |  |  |  | 98% | 0.27 µM | 100% | 0.5 µM | 1.07 µM | 101% | 98.6% | 0.07 µM | 1.5 µM | 98.8% | 5.45 µM | 103% |
| C[C@H](NP(=O)(Oc1cccc2ccccc12)OC1C[C@H](n2cnc3c(N)nc(Cl)nc32)O[C@@H]1CO)C(=O)OC1CCCCC1 (stereo partly drawn) [Compound 8, 2-Chloro-2 ‘-deoxyadenosine-3’-[1-naphthyl-(cyclohexoxy-L-alaninyl)] phosphate] |  |  |  |  |  |  | 96% | 0.46 µM | 98.1% | 0.85 µM | 3.5 µM | 100% | 98.3% | 0.18 µM | 2.75 µM | 98.4% | 7.97 µM | 101% |
| C[C@H](NP(=O)(Oc1ccccc1)OC1C[C@H](n2cnc3c(N)nc(Cl)nc32)O[C@@H]1CO)C(=O)OC1CCCCC1 (stereo partly drawn) [Compound 9, 2-Chloro-2′-deoxyadenosine-3′-[phenyl-(cyclohexoxy-L-alaninyl)] phosphate] |  |  |  |  |  |  | 87.7% | 0.13 µM | 89.9% | 0.14 µM | 0.051 µM | 99.9% | 97.2% | 0.044 µM | 0.8 µM | 96.9% | 21 µM | 100% |
| C[C@H](NP(=O)(Oc1ccccc1)OC1C[C@H](n2cnc3c(N)nc(Cl)nc32)O[C@@H]1CO)C(=O)OCC(C)(C)C (stereo partly drawn) [Compound 10, 2-Chloro-2′-deoxyadenosine-3′-[phenyl-(2,2-dimethylpropoxy-L-alaninyl)] phosphate] |  | > 10 µM | 5300 nM |  |  |  | 87.7% | 0.12 µM | 89.8% | 0.15 µM | 0.047 µM | 100% | 97.2% | 0.042 µM | 0.6 µM | 95% | 22 µM | 99.2% |
| CCOC(=O)C(C)(C)NP(=O)(Oc1ccccc1)OC1C[C@H](n2cnc3c(N)nc(Cl)nc32)O[C@@H]1CO (stereo partly drawn) [Compound 11, 2-Chloro-2 ‘-deoxyadenosine-3’-[phenyl-(ethoxy-2,2-dimethylglycinyl)]-phosphate] |  | > 10 µM | 300 nM |  |  |  |  |  |  |  |  |  |  |  |  |  |  |  |
| Nc1nc(Cl)nc2c1ncn2[C@H]1CC(OP(=O)(N[C@@H](Cc2ccccc2)C(=O)OCc2ccccc2)Oc2ccccc2)[C@@H](CO)O1 (stereo partly drawn) [Compound 12, 2-Chloro-2 ‘-deoxyadenosine-3’-[phenyl-(benzoxy-L-phenylalaninyl)] phosphate] | 4 µM | 1 µM | 2000 nM | 10 µM | 2000 nM | 2000 nM |  |  |  |  |  |  |  |  |  |  |  |  |
| Nc1nc(Cl)nc2c1ncn2[C@H]1CC(OP(=O)(N[C@@H](Cc2ccccc2)C(=O)OCc2ccccc2)Oc2cccc3ccccc23)[C@@H](CO)O1 (stereo partly drawn) [Compound 13, 2-Chloro-2′-deoxyadenosine-3′-[1-naphthyl(benzoxy-L-phenylaninyl)] phosphate] | 1 µM | 0.3 µM | 1000 nM | 7 µM | 1000 nM | 800 nM |  |  |  |  |  |  |  |  |  |  |  |  |
| CC(C)[C@H](NP(=O)(Oc1ccccc1)OC1C[C@H](n2cnc3c(N)nc(Cl)nc32)O[C@@H]1CO)C(=O)OCc1ccccc1 (stereo partly drawn) [Compound 14, 2-Chloro-2′-deoxyadenosine-3′-[phenyl-(benzoxy-L-valinyl)] phosphate] | 2 µM | 0.8 µM | 3000 nM | > 10 µM | 400 nM | 2000 nM |  |  |  |  |  |  |  |  |  |  |  |  |
| CC(C)OC(=O)[C@H](C)NP(=O)(Oc1ccccc1)OC1C[C@H](n2cnc3c(N)nc(Cl)nc32)O[C@@H]1CO (stereo partly drawn) [Compound 15, 2-Chloro-2′-deoxyadenosine-3′-[phenylaso-propoxy-L-alaninyl)] phosphate] | 5 µM | 6 µM | 2000 nM | > 10 µM | 400 nM | 9000 nM |  |  |  |  |  |  |  |  |  |  |  |  |
| CCC(C)OC(=O)[C@H](C)NP(=O)(Oc1ccccc1)OC1C[C@H](n2cnc3c(N)nc(Cl)nc32)O[C@@H]1CO (stereo partly drawn) [Compound 16, 2-Chloro-2′-deoxyadenosine-3′-[phenyl-(2-butoxy-L-alaninyl)] phosphate] | 7 µM | 9 µM | 8000 nM | > 10 µM | 2000 nM | > 10000 nM |  |  |  |  |  |  |  |  |  |  |  |  |
| C[C@H](NP(=O)(Oc1ccccc1)OC1C[C@H](n2cnc3c(N)nc(Cl)nc32)O[C@@H]1CO)C(=O)O[C@@H](C)c1ccccc1 (stereo partly drawn) [Compound 17] |  | 5.5 µM | 3200 nM |  |  |  |  |  |  |  |  |  |  |  |  |  |  |  |
